Test results as given in patent US7025968B2, “CMV vaccines” (ChemoCentryx, Inc., priority 2000, dated 2006).

Assays:
[1] = molecular target: wild type virions (Toledo); assay: 125I-fractalkine competition binding to purified HCMV virions (Example 1); set-up: species or system HCMV strain Toledo; conditions: about 3 hours at 4° C., FIG. 5, read-out: IC50, unlabeled fractalkine competing off labeled fractalkine
Protocol: (§1) Human dermal fibroblasts were infected with HCMV strain Toledo or HCMV TolΔUS28 (Streblow et al., 1999, Cell 99:511-20) at an MOI of 0.01 and maintained at 37° C. and 5% CO2 in Dulbecco's minimal essential medium with 10% fetal calf serum and fed as necessary. At day 15 post infection supernatant was collected and clarified by two rounds of centrifugation at 400 g. Virions from the clarified supernatant were pelleted at 10,000 g, resuspended in TN (50 mM TRIS-Cl pH 7.5, 100 mM NaCl), and purified over two consecutive 20-70% sucrose gradients by standard techniques (Britt W J., 1984, Virology 135: 369-78). Virions were resuspended in 500 ul of assay buffer (20 mM HEPES, 140 mM NaCl, 1 mM CaCl2, 5 mM MgCl2, and with 0.2% bovine serum albumin) and 0.09 mL added to each well of assay plates containing serial dilutions of fractalkine (concentrations between 0-250 nM) in triplicate.
(§2) Then 0.09 mL of ^125I-fractalkine diluted in assay buffer (final concentration ˜2-10 fM, with ˜30,000 cpm per well) was added, the plates sealed and incubated for approximately 3 hours at 4° C. on a shaker platform. The assay plates were harvested using Packard filter plates, pre-soaked in PEI solution, on the vacuum harvest apparatus. Scintillation fluid (35 μL) was added to all wells, the plates were sealed and counted in a Top Count scintillation counter. […]

[2] = tested on: virions with deletion of US28 from the genome (TolΔUS28); assay: 125I-fractalkine binding to purified US28-deleted HCMV virions (Example 1); conditions: FIG. 5
Protocol: as §1, §2

[3] = tested on: HCMV virions lacking US28 (Toledo deltaUS28); assay: 125I-fractalkine binding to virions (Example 4), US28-deleted HCMV; set-up: species or system human CMV strain Toledo deltaUS28; conditions: 3 hours at 4° C., FIG. 7
Protocol: (§3) Human dermal fibroblast (HDF) were infected at an MOI of 3 with human CMV strain Toledo or a Toledo strain in which the US28 gene had been replaced with a green fluorescent protein/gpt resistance cassette (Toledo deltaUS28) (see, e.g., Vieira, J. et al. (1998) J. Virol. 72:S158-65). Alternatively, rhesus dermal fibroblasts (RhDF) were infected at an MOI of 3 with rhesus CMV strain 68.1 (see ATCC # VR-677). At 96 hours post infection supernatants were collected.
(§4) Supernatants were cleared by two spins at 1,500 rpm for 5 minutes in a bench top centrifuge. Virions were pelleted from the supernatant for 30 minutes at 10,000 rpm in a Beckman JA-21 or J-14 centrifuge or other similar centrifuge and resuspended in 0.5 ml TN buffer (0.05 M Tris/HCl, pH 7.4, 0.1M NaCl) then layered onto a 5 ml sucrose density gradient (20% to 70% w/v sucrose in TN) in a SW 50 centrifuge tube. Gradients were spun 90 minutes at 24,000 rpm in a Beckman SW50 centrifuge at 10° C. […]
(§5) Following incubation, the assay wells were harvested under vacuum using filter plates, pre-soaked with PEI solution. Scintillation fluid was added, the plates sealed and the radioactivity in the various wells counted.

[4] = tested on: Rhesus dermal fibroblasts infected with Rhesus CMV; assay: radioligand binding assay, 125I-fractalkine on rhCMV-infected cells (Example 3); conditions: unlabeled fractalkine vs 125I-fractalkine ~50 pM, 2-4 hours at 4° C., FIG. 6; read-out: IC50, reduction of binding of labeled fractalkine to the receptor by 50%
Protocol: Radioligand binding assays were carried our in the following manner. The target cells typically used in these assays were Rhesus dermal fibroblasts which had been infected with Rhesus; CMV for 3-7 days. Lots of cells verified for fractalkine binding were frozen until ready for use. For the assay, cells were thawed, washed, and resuspended in assay buffer (20 mM HEPES pH 7.1, 140 mM NaCl, 1 mM CaCl2, 5 mM MgCl2, and 0.2% bovine serum albumin) to a concentration of from 4×10^5 to 5×10^6 cells/ml.
Serial dilutions of unlabeled fractalkine were prepared as a 10× solution in 20% DMSO, and 0.02 ml was placed in assay plates. Next 0.09 ml of cells was added to the assay plates containing the unlabeled fractalkine. Lastly, 0.09 ml of ^125I-fractalkine diluted in assay buffer (final concentration ˜50 pM, with 20,000-50,000 cpm per well) was added, the plates sealed and incubated for 2-4 hours at 4° C. on a shaker platform. Assay plates were harvested using Packard GF/B filter plates (pre-soaked in 0.3% polyethyleneimmine (PEI) solution) on a Packard vacuum cell harvester. Scintillation fluid was added to all wells, the plates were sealed and then counted in a Top Count scintillation counter. Control wells containing either diluent only (for total counts) or excess unlabeled fractalkine (1 μg/ml, for non-specific binding) were used to calculate the percent of total inhibition. […]

[5] = tested on: Wild type HCMV virions expressing US28; assay: 125I-fractalkine binding to virions (Example 4), wild type HCMV; set-up: species or system human CMV strain Toledo; conditions: 3 hours at 4° C., FIG. 7
Protocol: as §3, §4, §5

[6] = molecular target: T1, US28 (Human cytomegalovirus, UniProt P69332); conditions: Kledal et al., 1998; read-out: KI of binding to US28; cited from earlier work
T1 sequence (P69332 1-354): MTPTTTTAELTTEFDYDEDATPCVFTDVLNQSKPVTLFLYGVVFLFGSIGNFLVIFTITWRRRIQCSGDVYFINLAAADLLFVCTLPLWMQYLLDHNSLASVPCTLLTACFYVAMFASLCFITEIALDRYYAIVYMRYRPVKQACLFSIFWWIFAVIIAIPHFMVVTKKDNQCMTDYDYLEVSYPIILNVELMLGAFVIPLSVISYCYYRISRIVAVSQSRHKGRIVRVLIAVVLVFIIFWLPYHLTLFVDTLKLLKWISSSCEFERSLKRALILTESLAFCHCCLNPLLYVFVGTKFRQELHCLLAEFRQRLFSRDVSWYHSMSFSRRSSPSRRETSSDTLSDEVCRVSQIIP

[7] = tested on: rhCMV virions purified from RHDF cells; assay: 125I-fractalkine binding to virions (Example 4), rhCMV; set-up: species or system rhesus CMV strain 68.1; conditions: 3 hours at 4° C., FIG. 7
Protocol: as §3, §4, §5

## fractalkine: CX3C chemokine, tends to be cell bound; binds with very high affinity to the US28 receptor of HCMV
[1]
  IC50: ~0.04 nM
[2]
  binding of labeled fractalkine to virions: virtually no binding
[3]
  binding of radiolabeled fractalkine to virions: do not bind fractalkine
[4]
  IC50: 0.044 nM
[5]
  binding of radiolabeled fractalkine to virions: bind fractalkine tightly
[6]
  Ki: ~0.05 nM
[7]
  binding of radiolabeled fractalkine to virions: also bind to fractalkine
